Data taken from patent US8338616B2, “Thiazoliums and their use for treating protein aging associated diseases” (Beijing Molecule Science And Technology Co., Ltd., priority 2008, dated 2012).
Like-named read-outs stand apart in the source and are kept apart here. Marks after values point to notes of the source that are not given here.

How the values were obtained:
[1] = test system: NaCl treated diabetic rats modeled with heart failure; settings: 10 weeks; for BNP: blood plasma
Protocol: Second batch: NaCl treated diabetic rats modeled with heart failure for 20 weeks and normal control rats synchronically and conventionally drinking water were divided into 5 groups: normal control rats synchronically and conventionally drinking water group (Normal Control), model control group (Model Control), the compound A group (ig, 9 mg/kg), the compound A group (ig, 36 mg/kg), administered with drug once per day for consecutive 10 weeks. The pharmacodynamic evaluation on left ventricular function was conducted by using a ventricular chatheterization method.
(§1) SPSS statistic software was used to analyze and treat data, and all data were expressed in mean±standard deviation (Mean±SD).

[2] = test system: NaCl treated diabetic rats modeled with heart failure; experiment: Chronic heart failure, first batch, ultrasonic cardiogram evaluation; format: in vivo, rat; settings: valsartan 10 mg/kg, compound A 18 mg/kg ig
Protocol: The pharmacodynamic evaluation was conducted by using a noninvasive ultrasonic cardiogram method.
Evaluation indexes: (1) morphology indexes: left ventricular posterior wall dimensions (LVPWd), left ventricular diastasis internal diameter (LVDd), end systolic diameter (LVDs); (2) functional indexes: ejection fraction (EF), shortening fraction (FS), ventricular early blood flow filling rate (E), atrial filling rate (A) and ratio of E/A; Doppler tissue image; at cardiac apical four chamber view, the valve ring of anterior mitral valve was used as sampling point, peak early diastolic velocity (Ea peak), peak late diastolic velocity (Aa peak), and Ea/Aa ratio reflected the systolic and diastolic motion of the whole left ventricle.
as §1

diabetic rats = settings: for CO / Cl / Diastolic pressure / Heart rate / SAC / Systolic pressure / TPR / TPR index / Organ parameters: Heart / Organ parameters: Heart ventricle / Organ parameters: Left kidney / Organ parameters: Left ventricle / Organ parameters: Right kidney: diabetic rats; for CO / Cl / Diastolic pressure / Heart rate / SAC / Systolic pressure / TPR / TPR index: 4 weeks; for Organ parameters: Heart / Organ parameters: Heart ventricle / Organ parameters: Left kidney / Organ parameters: Left ventricle / Organ parameters: Right kidney: dose not given
Protocol: Rats were anesthetized with pentobarbital sodium injection (0.8%, 50 mg/kg), subjected to tracheal cannula, heparin anticoagulation, right common carotid artery cannula, communicated with Biopac physiological recorder via is pressure transducers to record blood pressure; subjected to thoracotomy at middle of sternum, separation of ascending aorta which was covered with pulse Doppler probe, and the pulse Doppler rheometer was linked to the Biopac physiological recorder for real-time recording and calculating hemodynamic parameters by the software of Biopac (Acknowledge, Version 3): systolic blood pressure (SBP), diastolic blood pressure (DBP), heart rate (HR), cardiac output
(CO), cardiac index (CI), total peripheral resistance (TPR), total peripheral resistance index (TPR Index), stroke volume (SV) and system arterial compliance (SAC), etc. After 10 min of postoperative stabilization, these parameters were recorded continuously, and mean values for 30 s were used as the measured values of these parameters.
Formula for calculating some of hemodynamic parameters: TPR=mean arterial pressure (MAP)/CO SAC=SV/(SBP−DBP)

## Cc1csc[n+]1CC(=O)O.[Na+] [A, 3-carboxymethyl-4-methyl-thiazolium bromide sodium]
[1]; 9 mg/kg ig
  Heart rate: 418.3 ± 27.2 Beats/min
  LVEDP: 11.6 ± 2.9^d mmHg
  LVSP: 187.6 ± 22.3 mmHg
  Neg dp/pt: 10729 ± 2035^d mmHg/s
  Pos dp/pt: 10729 ± 2035^d mmHg/s
  BNP: 50.8 ± 5.7 pg/mL
[1]; 36 mg/kg ig
  Heart rate: 406.1 ± 32.9 Beats/min
  LVEDP: 13.0 ± 6.1^d mmHg
  LVSP: 189.2 ± 13.8 mmHg
  Neg dp/pt: 10033 ± 2044^d mmHg/s
  Pos dp/pt: 10033 ± 2044^d mmHg/s
  BNP: 51.3 ± 8.1 pg/mL
[2]; 10th week of administration (30th week of modeling), model control 2.5±0.31
  E/A ratio: 1.32±0.31
[2]; 10th week of administration
  Ea/Aa ratio vs model: increased significantly
  LVDd and LVDs vs model: slight decrease
  PWd vs model: slight increase
[2]; 16th week of administration (36th week of modeling), model control 2.5±0.52
  E/A ratio: 1.45±0.18
other
  melting point: 182 °C
Diabetic rats; 9 mg/kg i.g.
  CO: 84.9 ± 13.6 mL/min
  Cl: 0.194 ± 0.031 ml/min per cm^2
  Diastolic pressure: 68.8 ± 14.0 mmHg
  Heart rate: 265.2 ± 25.8^ beats/min
  SAC: 9.05 ± 1.44** 10^−3 ml/mmHg
  Systolic pressure: 105.3 ± 12.0 mmHg
  TPR: 78.6 ± 19.7** 10^3 · dyne · sec/cm^5
  TPR index: 181.6 ± 51.3 dyne · sec/cm^3
Diabetic rats; 18 mg/kg i.g.
  CO: 79.2 ± 10.6 mL/min
  Cl: 0.179 ± 0.026 ml/min per cm^2
  Diastolic pressure: 72.8 ± 17.2 mmHg
  Heart rate: 282.2 ± 31.9^ beats/min
  SAC: 8.02 ± 1.27** 10^−3 ml/mmHg
  Systolic pressure: 108.7 ± 14.7 mmHg
  TPR: 87.4 ± 22.3* 10^3 · dyne · sec/cm^5
  TPR index: 198.2 ± 56.2 dyne · sec/cm^3
Diabetic rats; 36 mg/kg i.g.
  CO: 77.7 ± 10.0 mL/min
  Cl: 0.179 ± 0.024 ml/min per cm^2
  Diastolic pressure: 60.7 ± 16.1 mmHg
  Heart rate: 261.0 ± 32.3^ beats/min
  SAC: 7.92 ± 1.11* 10^−3 ml/mmHg
  Systolic pressure: 99.2 ± 13.2 mmHg
  TPR: 77.0 ± 19.6** 10^3 · dyne · sec/cm^5
  TPR index: 176.4 ± 44.6 dyne · sec/cm^3
Diabetic rats; first of three A lines
  Organ parameters: Heart: 3.42 g/g × 10^-3
  Organ parameters: Heart ventricle: 2.99 g/g × 10^-3
  Organ parameters: Left kidney: 5.20 g/g × 10^-3
  Organ parameters: Left ventricle: 2.29 g/g × 10^-3
  Organ parameters: Right kidney: 5.33 g/g × 10^-3
Diabetic rats; second of three A lines
  Organ parameters: Heart: 3.44 g/g × 10^-3
  Organ parameters: Heart ventricle: 3.01 g/g × 10^-3
  Organ parameters: Left kidney: 5.16 g/g × 10^-3
  Organ parameters: Left ventricle: 2.34 g/g × 10^-3
  Organ parameters: Right kidney: 5.22 g/g × 10^-3
Diabetic rats; third of three A lines
  Organ parameters: Heart: 3.44 g/g × 10^-3
  Organ parameters: Heart ventricle: 3.03 g/g × 10^-3
  Organ parameters: Left kidney: 5.07 g/g × 10^-3
  Organ parameters: Left ventricle: 2.32 g/g × 10^-3
  Organ parameters: Right kidney: 5.19 g/g × 10^-3
Diabetic rats; long-term diabetic rats, 4 weeks of administration
  effect on angiosclerosis: improving angiosclerosis
